In patent US11318119B2 (Gilead Sciences, Inc., priority 2019, dated 2022):
Where two headings read alike, the source gives them in different places.

Assays:
[1] = test system: single replication cycle recombinant virus containing the protease and reverse transcriptase coding regions of HIV-1 from a patient blood sample; assay type: cell-based; conditions: for mean fold change in susceptibility: mean over the resistant panel of Table 2
Description: Resistance testing was done by Monogram Biosciences using their proprietary PhenoSense HIV assay. This assay evaluates drug susceptibility by using a single replication cycle recombinant virus containing the protease (amino acids 1-99 plus p7/p1/p6 gag cleavage sites) and reverse transcriptase (amino acids 1-304) coding regions of HIV-1 from a patient blood sample.

[2] = in vitro; conditions: human, microsomes
Procedure: Liver Microsomal Stability Protocol
Test compounds and one control compound (verapamil) were tested in 3 different species in duplicate sets.
Reaction composition (in each incubation well) contains:
After plates were vortexed, they were centrifuged for 30 minutes to remove proteins. About 100 μL supernatant was removed to a new plate and diluted with 150 μL water. About 20 μL of the mixture was injected into LC/MS/MS system to monitor the compound's response. In vitro measured t1/2 was used to calculate Clint values.

[3] = test system: HIV-1 (IIIB) in MT-4 cells; experiment: MT-4 HIV High Resolution Antiviral Assay; assay type: cell-based; conditions: EC95=(19)^1/hill coefficient x EC50
Procedure: (§1) Compounds were tested in a high-throughput 384-well assay format for their ability to inhibit the replication of HIV-1 (IIIB) in MT-4 cells. Compounds were serially diluted (1:3) in DMSO on 384-well polypropylene plates and further diluted 200-fold into complete RPMI media (10% FBS, 1% P/S) using the Biotek Micro Flow and Agilent ECHO acoustic dispenser. Each plate contained up to 8 test compounds, with negative (No Drug Control) and 5 uM AZT positive controls. MT-4 cells were pre-infected with 10 uL of either RPMI (mock-infected) or a fresh 1:250 dilution of an HIV-1 (IIIB) concentrated virus stock. Infected and uninfected MT-4 cells were further diluted in complete RPMI media and added to each plate using a Micro Flow dispenser. After 5 days incubation in a humidified and temperature controlled incubator (37° C.), Cell Titer Glo (Promega) was added to the assay plates to quantify the amount of luciferase.

[4] = test system: HIV-1 (IIIB) in MT-4 cells; experiment: MT-4 HIV Assay (inhibition of HIV-1 replication, Cell Titer Glo readout); assay type: cell-based; conditions: Human immunodeficiency virus 1, MT4, 120 h, 5 days incubation
Procedure: as §1

[5] = molecular target: T1, recombinant HIV protease (Human immunodeficiency virus type 1 group M subtype B, UniProt P04585); experiment: HIV Protease Enzyme Inhibition (PI) Activity, fluorogenic enzymatic assay; assay type: biochemical
T1 construct: recombinant HIV protease
Procedure: HIV Protease Enzyme Inhibition (PI) Activity
Inhibitor potency against HIV protease can be measured using an enzymatic assay with a fluorogenic readout. To a reaction buffer containing 100 mM ammonium acetate at pH 5.3, 100 mM NaCl, 1 mM EDTA, 1 mM DTT, 0.25 mg/mL BSA and 1% DMSO are added 10 nM of recombinant HIV protease (concentration based on protein monomer) and test compound at one of various concentrations. After a 10-minute pre-incubation, the enzymatic reaction is initiated by the addition of the fluorogenic substrate (2-aminobenzoyl)Thr-Ile-Nle-(p-nitro)Phe-Gln-Arg (Bachem; Product No. H-2992) (SEQ ID NO: 1) to a final concentration of 40 μM. The total volume of the assay solution is 100 μL. The reaction is measured over 10 minutes on a Tecan Infinite M1000 plate reader using an excitation wavelength of 320 nm and a detection wavelength of 420 nm. The slopes of the progress curves are the measure of reaction rates. Reaction rates are plotted as a function of inhibitor concentration, and the data are fit with a four-parameter logistic fit using Graphpad PRISM software to yield IC50 values.

[6] = Resistance mutations D30N L33F N88D L90M
[7] = Resistance mutations L10F L33F M46I I50V V82A N88D L89V
[8] = Resistance mutations L10F M46I I47V I50V I54V G73S I84V L90M
[9] = Resistance mutations L10F M46L I54V V82A 184V
[10] = Resistance mutations L10F V32I M46I I47V I50V I54L I84V
[11] = Resistance mutations L10F/L D30N I54V N88D L90M
[12] = Resistance mutations L10F/L D30N L33F I54L N88D L90M
[13] = Resistance mutations L10I I50 V82A L90M
[14] = Resistance mutations L10I L33F G48V I50L I54V/I V82A
[15] = Resistance mutations L10I L33F M46I I54V V82A I84V
[16] = Resistance mutations L10I L33F M46L G48V I54M V82A I84V L90M
[17] = Resistance mutations L10I L33F/L G48V G73S V82A
[18] = Resistance mutations L10I M46I G48V I50V V82A L90M
[19] = Resistance mutations L10I M46I I50V
[20] = Resistance mutations L10I M46L I54V V82A
[21] = Resistance mutations L10I M46L I54V V82F L90M
[22] = Resistance mutations L10I V32I L33F M46L I54L I84V L89V
[23] = Resistance mutations L10I V32I M46I I47V G48V I54M V82T L90M
[24] = Resistance mutations L10I V32I M46I I47V I50V I54L L90M
[25] = Resistance mutations L10V L33F I50L L90M
[26] = Resistance mutations L10V L33F M46I I54V V82A I84V L90M/L
[27] = Resistance mutations L10V/L M46I I50L V82A
[28] = Resistance mutations L33F M46I I50V L76V
[29] = Resistance mutations M46I L76V I84V
[30] = 10 nM recombinant HIV protease, pH 5.3, 40 μM fluorogenic substrate, read-out: HIV PI IC50

COC(=O)N[C@H](C(=O)N[C@@H](Cc1ccccc1)[C@@H](O)CN(Cc1ccc(-c2ccccn2)cc1)NC(=O)[C@@H](NC(=O)OC)C(C)(C)C)C(C)(C)C [Atazanavir, methyl N-[(2S)-1-[2-[(2S,3S)-2-hydroxy-3-[[(2S)-2-(methoxycarbonylamino)-3,3-dimethylbutanoyl]amino]-4-phenylbutyl]-2-[(4-pyridin-2-ylphenyl)methyl]hydrazinyl]-3,3-dimethyl-1-oxobutan-2-yl]carbamate, reference compound]
Fold Change in EC50 [1, 6]: 4.68
Fold Change in EC50 [1, 7]: 1.25
Fold Change in EC50 [1, 8]: 19
Fold Change in EC50 [1, 9]: 73
Fold Change in EC50 [1, 10]: 5.44
Fold Change in EC50 [1, 11]: 29
Fold Change in EC50 [1, 12]: 15
Fold Change in EC50 [1, 13]: 33
Fold Change in EC50 [1, 14]: 70
Fold Change in EC50 [1, 15]: 44
Fold Change in EC50 [1, 16]: 70
Fold Change in EC50 [1, 17]: >91
Fold Change in EC50 [1, 18]: 39
Fold Change in EC50 [1, 19]: 2.39
Fold Change in EC50 [1, 20]: 9.73
Fold Change in EC50 [1, 21]: 24
Fold Change in EC50 [1, 22]: 89
Fold Change in EC50 [1, 23]: 9.49
Fold Change in EC50 [1, 24]: 25
Fold Change in EC50 [1, 25]: >91
Fold Change in EC50 [1, 26]: 9.69
Fold Change in EC50 [1, 27]: 69
Fold Change in EC50 [1, 28]: 1.84
Fold Change in EC50 [1, 29]: 1.36
mean fold change in susceptibility [1]: 17.7
half-life at 1 μM [2]: 0.433 to 1.78 h

CC(C)(C[C@]1(c2ccc(-c3ccc(S(C)(=O)=O)cc3)cc2)NC(=N)N([C@H](COC(=O)NC2(C(F)F)CC2)c2ccc(Cl)c(-c3ncnn3C(F)F)c2)C1=O)C(F)(F)F [Compound 1, (S)-2-(4-chloro-3-(1-(difluoromethyl)-1H-1,2,4-triazol-5-yl)phenyl)-2-((R)-2-imino-4-(4′-(methylsulfonyl)-[1,1′-biphenyl]-4-yl)-5-oxo-4-(3,3,3-trifluoro-2,2-dimethylpropyl)imidazolidin-1-yl)ethyl (1-(difluoromethyl)cyclopropyl)carbamate]
EC95 [3]: 24.9 nM
EC50 [4]: 13.2 nM
IC50 [5, 30]: 1.8 nM

CC(C)(C[C@]1(c2ccc(-c3cccc(S(C)(=O)=O)c3)cc2)NC(=N)N([C@H](COC(=O)NC2(C(F)F)CC2)c2ccc(Cl)c(-c3ncnn3C(F)F)c2)C1=O)C(F)(F)F [Compound 2]
EC50 [4]: 27.5 nM
IC50 [5, 30]: 2.9 nM

CC(C)(C[C@]1(c2ccc(-c3ccc(S(C)(=O)=O)c(F)c3)cc2)NC(=N)N([C@H](COC(=O)NC2(C(F)F)CC2)c2ccc(Cl)c(-c3ncnn3C(F)F)c2)C1=O)C(F)(F)F [Compound 3]
EC50 [4]: 11.1 nM
IC50 [5, 30]: 2.9 nM

CC(C)(C[C@]1(c2ccc(-c3ccc(S(C)(=O)=O)cc3F)cc2)NC(=N)N([C@H](COC(=O)NC2(C(F)F)CC2)c2ccc(Cl)c(-c3ncnn3C(F)F)c2)C1=O)C(F)(F)F [Compound 4]
EC50 [4]: 11.3 nM
IC50 [5, 30]: 2.4 nM

CC(C)(C[C@]1(c2ccc(-c3ccc(F)cc3)cc2)NC(=N)N([C@H](COC(=O)NC2(C(F)F)CC2)c2ccc(Cl)c(-c3ncnn3C(F)F)c2)C1=O)C(F)(F)F [Compound 5]
EC50 [4]: 63.1 nM
IC50 [5, 30]: 4.5 nM

CC(C)(C[C@]1(c2ccc(-c3cccc(F)c3)cc2)NC(=N)N([C@H](COC(=O)NC2(C(F)F)CC2)c2ccc(Cl)c(-c3ncnn3C(F)F)c2)C1=O)C(F)(F)F [Compound 6]
EC50 [4]: 50 nM
IC50 [5, 30]: 2.3 nM

CC(C)(C[C@]1(c2ccc(-c3cnn(C(F)F)c3)cc2)NC(=N)N([C@H](COC(=O)NC2(C(F)F)CC2)c2ccc(Cl)c(-c3ncnn3C(F)F)c2)C1=O)C(F)(F)F [Compound 7]
Fold Change in EC50 [1, 6]: 3.62
Fold Change in EC50 [1, 7]: 0.58
Fold Change in EC50 [1, 8]: 3.51
Fold Change in EC50 [1, 9]: 0.91
Fold Change in EC50 [1, 10]: 1.08
Fold Change in EC50 [1, 11]: 5.32
Fold Change in EC50 [1, 12]: 2.57
Fold Change in EC50 [1, 13]: 1.7
Fold Change in EC50 [1, 14]: 0.72
Fold Change in EC50 [1, 15]: 2.49
Fold Change in EC50 [1, 16]: 2.9
Fold Change in EC50 [1, 17]: 2.34
Fold Change in EC50 [1, 18]: 9.22
Fold Change in EC50 [1, 19]: 2.2
Fold Change in EC50 [1, 20]: 5.84
Fold Change in EC50 [1, 21]: 4.33
Fold Change in EC50 [1, 22]: 0.82
Fold Change in EC50 [1, 23]: 2.84
Fold Change in EC50 [1, 24]: 3.92
Fold Change in EC50 [1, 25]: 3.09
Fold Change in EC50 [1, 26]: 2.6
Fold Change in EC50 [1, 27]: 4.77
Fold Change in EC50 [1, 28]: 1.39
Fold Change in EC50 [1, 29]: 2.04
mean fold change in susceptibility [1]: 2.4
EC95 [3]: 17.8 nM
EC50 [4]: 7.8 nM
IC50 [5, 30]: 1.8 nM

CC(C)(C[C@]1(c2ccc(-c3ccn(C(F)F)n3)cc2)NC(=N)N([C@H](COC(=O)NC2(C(F)F)CC2)c2ccc(Cl)c(-c3ncnn3C(F)F)c2)C1=O)C(F)(F)F [Compound 8, (S)-2-(4-chloro-3-(1-(difluoromethyl)-1H-1,2,4-triazol-5-yl)phenyl)-2-((R)-4-(4-(1-(difluoromethyl)-1H-pyrazol-3-yl)phenyl)-2-imino-5-oxo-4-(3,3,3-trifluoro-2,2-dimethylpropyl)imidazolidin-1-yl)ethyl (1-(difluoromethyl)cyclopropyl)carbamate]
EC50 [4]: 8.4 nM
IC50 [5, 30]: 2 nM

CC(C)(C[C@]1(c2ccc(-c3cn(C(F)F)cn3)cc2)NC(=N)N([C@H](COC(=O)NC2(C(F)F)CC2)c2ccc(Cl)c(-c3ncnn3C(F)F)c2)C1=O)C(F)(F)F [Compound 9, (S)-2-(4-chloro-3-(1-(difluoromethyl)-1H-1,2,4-triazol-5-yl)phenyl)-2-((R)-4-(4-(1-(difluoromethyl)-1H-imidazol-4-yl)phenyl)-2-imino-5-oxo-4-(3,3,3-trifluoro-2,2-dimethylpropyl)imidazolidin-1-yl)ethyl (1-(difluoromethyl)cyclopropyl)carbamate]
EC50 [4]: 26.3 nM
IC50 [5]: 5.7 nM
